Experimental data published in PubChem BioAssay (NCI).
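Grown in 96-well plates, cells were treated for 48 hours with each compound at five concentrations. Insufficient inhibition: endpoint recorded as highest concentration tested. Abbreviation: GI50, concentration required for 50% inhibition of growth. Definition used: TGI = concentration required for complete inhibition of growth.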

Legend:
Assay in all cases: NCI tumour cell line growth inhibition, 48 h
HCC-2998 colon = tested on: HCC-2998 colon
SN12C renal = tested on: SN12C renal
SNB-19 CNS = tested on: SNB-19 CNS
MOLT-4 leukemia = tested on: MOLT-4 leukemia
T-47D breast = tested on: T-47D breast
OVCAR-4 ovarian = tested on: OVCAR-4 ovarian
OVCAR-8 ovarian = tested on: OVCAR-8 ovarian
TK-10 renal = tested on: TK-10 renal
SW-620 colon = tested on: SW-620 colon
HOP-62 NSCLC = tested on: HOP-62 NSCLC

| Compound | GI50 (HCC-2998 colon) [µM] | TGI (HCC-2998 colon) [µM] | GI50 (SN12C renal) [µM] | TGI (SN12C renal) [µM] | GI50 (SNB-19 CNS) [µM] | TGI (SNB-19 CNS) [µM] | GI50 (MOLT-4 leukemia) [µM] | TGI (MOLT-4 leukemia) [µM] | GI50 (T-47D breast) [µM] | TGI (T-47D breast) [µM] | GI50 (OVCAR-4 ovarian) [µM] | TGI (OVCAR-4 ovarian) [µM] | GI50 (OVCAR-8 ovarian) [µM] | TGI (OVCAR-8 ovarian) [µM] | GI50 (TK-10 renal) [µM] | TGI (TK-10 renal) [µM] | GI50 (SW-620 colon) [µM] | TGI (SW-620 colon) [µM] | GI50 (HOP-62 NSCLC) [µM] | TGI (HOP-62 NSCLC) [µM] |
| --- | --- | --- | --- | --- | --- | --- | --- | --- | --- | --- | --- | --- | --- | --- | --- | --- | --- | --- | --- | --- |
| COC(=O)/C=C/c1cc(OC(C)=O)c2c(c1)C(C(=O)OC)C(c1ccc(OC(C)=O)c(OC(C)=O)c1)O2 (centres undefined) | 0.461 | 48.4 | 0.253 | > 42.5 | 0.131 | > 100 | 0.0582 | > 47.4 | 3.11 | > 76.8 | 0.345 | 49.7 | 0.224 | > 72.9 | 8.98 | > 93.2 | 0.0468 | > 100 | 0.438 | > 100 |
| COc1cc2c3c(n(C)c(=O)c2cc1OC)-c1cc2c(cc1C3=O)OCO2 | – | > 100 | – | > 100 | – | > 100 | – | 54.7 | – | 57.3 | – | > 100 | – | > 100 | – | > 100 | – | > 100 | – | > 55 |
| CNc1cc2oc(=O)cc(C)c2cc1C | – | > 100 | – | > 100 | – | > 100 | – | > 100 | – | > 100 | – | > 100 | – | > 100 | – | > 100 | – | > 100 | – | > 100 |
| CCCCCCn1c(-c2ccc(C(=O)O/N=C(\N)c3ccc4c(c3)OCO4)cc2)nc(-c2ccccc2)c1-c1ccccc1 | 2.96 | 10.4 | 1.87 | 4.09 | 3.24 | 12.2 | 1.74 | 4.55 | 2.03 | 5.11 | 2.21 | 7 | 2.46 | 7.09 | 1.94 | 3.61 | 2.8 | 12 | 2.11 | 4.71 |
| CO[C@@H]1CC[C@]2(C)OC[C@H](C)[C@@H]3C[C@@H](C)[C@@H](OC(C)=O)[C@@H]4[C@H]3[C@@H]2O[C@H]4C[C@@]1(C)O | > 100 | > 100 | > 100 | > 100 | > 100 | > 100 | > 100 | > 100 | > 100 | > 100 | > 100 | > 100 | > 100 | > 100 | > 100 | > 100 | > 100 | > 100 | – | – |
| NC(=O)c1cc(I)ccc1NC(=O)/C=C/c1ccccc1 | 1.38 | 30.9 | 0.69 | > 63.4 | 0.645 | 13.7 | 0.539 | – | 0.597 | > 65.7 | 1.84 | 30.5 | 1.18 | 27.8 | 2.9 | 44.1 | 0.48 | > 100 | 1.12 | 23.8 |
| Nc1nc(Cl)nc2c1ncn2C1CC(O)C(CO)O1 (centres undefined) | – | > 100 | – | > 100 | – | > 100 | – | > 79.3 | 5.75 | > 100 | – | > 100 | – | > 100 | 50.2 | > 100 | – | > 100 | – | 6.8 |
